Measurements as given in patent US20140303144A1, “COMPOUNDS AND METHODS OF TREATING HYPERTENSION” (Medivation Technologies, Inc., priority 2011, published 2014).

Key:
[1] = system: SH-SY5Y cells; experiment: Cell viability assay (MTS reduction) against 4-Br-A23187 challenge; type: cell-based; details: compound 10 nM, 4-Br-A23187 (2 μM) for 24 h; for Relative Cytoprotective capacity: Control = 100, Vehicle = 0
Method: SH-SY5Y cells cultured in DMEM/F12 media supplemented with 10% FBS were seeded in 96-well microplates at 150,000 cells/cm^2. After 24 h, cells were depleted from FBS and kept in culture for 24 h before the experiment. A stock solution was prepared by dissolving the calcium ionophore 4-Br-A23187 (Calbiochem Cat. N^o 100107) in DMSO at 25 mM. Cells were then treated with 4-Br-A23187 (2 μM), hydrogen peroxide (300 μM) or the mitochondrial toxin rotenone (25 μM) in the presence of vehicle or Compound of the Invention for 24 h. Cell death was determined by measurements of LDH release according to the Cytotoxicity Detection KitPlus (Roche, Mannheim, Germany). Cell viability was determined by measuring the capacity of cells to metabolize MTS tetrazolium (MTS) according to the Cytotoxicity Detection KitPlus (Roche, Mannheim, Germany) and MTS reduction was assessed by the CellTiter 96® AQueous One Solution Cell Proliferation assay (Promega Corporation, Madison, Wis., USA). Compounds were screened at 10 nM, using DMSO as vehicle. Assay results for the experiments with Br-A23187 were presented as the MTS reduction capacity (cell viability) of untreated cells (control), 4-Br-A23187-treated cells (vehicle), and co-incubation of Br-A23187 with Compounds of the Invention treated cells and using […] (FCCP) at 10 μM for 30 min as a control. This assay assesses the ability of the test compounds to protect against cell death that was mediated by mitochondrial dysfunction. In the assay, the calcium ionophore 4-Br-A23187 was used to challenge the cells, causing calcium levels to rise in mitochondria, which leads to depolarization and cell death. Test compounds were assessed for their ability to prevent cell death in response to challenge with 4-Br-A23187.

[2] = biological target: T1, human recombinant adrenergic α2B receptor (Homo sapiens, UniProt P18089); experiment: Adrenergic α2B radioligand binding assay ([3H]Rauwolscine); details: for Percentage inhibition of ligand binding, Adrenergic α2B / inhibition at 0.1 µM: 0.1 μM compound; for Percentage inhibition of ligand binding, Adrenergic α2B: 0.1 µM; for inhibition at 0.1 µM / inhibition at 1 µM / inhibition at 0.03 µM: read-out: Percentage inhibition of ligand binding, Adrenergic α2B; for inhibition at 1 µM: 1 μM compound; for inhibition at 0.03 µM: 0.03 μM compound
T1 construct: expressed in transfected cells; host or cells: CHO-K1 cells
T1 sequence (P18089 1-450): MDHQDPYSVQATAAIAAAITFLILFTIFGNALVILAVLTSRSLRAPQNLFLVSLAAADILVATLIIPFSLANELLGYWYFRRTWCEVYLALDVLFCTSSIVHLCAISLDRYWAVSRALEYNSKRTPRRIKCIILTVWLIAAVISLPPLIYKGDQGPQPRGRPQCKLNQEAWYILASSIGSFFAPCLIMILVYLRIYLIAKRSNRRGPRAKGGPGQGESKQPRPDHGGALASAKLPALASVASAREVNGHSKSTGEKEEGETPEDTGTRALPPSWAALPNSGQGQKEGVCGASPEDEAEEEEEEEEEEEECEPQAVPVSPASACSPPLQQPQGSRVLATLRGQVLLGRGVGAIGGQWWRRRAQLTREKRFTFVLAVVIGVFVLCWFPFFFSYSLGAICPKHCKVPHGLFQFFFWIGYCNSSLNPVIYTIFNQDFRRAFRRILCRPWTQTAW
Method: To evaluate in radioligand binding assays the activity of compounds of the invention, human recombinant adrenergic α2B receptor expressed in Chinese hamster ovary (CHO) K1 cells (Uhlen, S. et al, Eur. J. Pharmacol. 343(1):93, 1998) in a modified Tris-HCl buffer (50 mM Tris-HCl, pH 7.4, 12.5 mM MgCl2, 1 mM EDTA, 0.2% BSA) was used. Compounds of the invention were incubated with 2.5 nM [3H]Rauwolscine for 60 min at 25° C. Non-specific binding was estimated in the presence of 10 μM Prazosin. Receptor proteins were filtered and washed, the filters were then counted to determine [3H]Rauwolscine specifically bound. Compounds were screened at 1 μM or lower, using 1% DMSO as vehicle. Compounds of the invention were tested in this biochemical assay and percent inhibition of specific binding was determined. Biochemical assay results are presented as the percent inhibition of specific binding in Tables B1A-B1D.

[3] = biological target: T2, human recombinant adrenergic α2A receptor (Homo sapiens, UniProt P08913); experiment: Adrenergic α2A radioligand binding assay ([3H]MK-912); details: for Percentage inhibition of ligand binding, Adrenergic α2A / inhibition at 0.1 µM: 0.1 μM compound; for Percentage inhibition of ligand binding, Adrenergic α2A: 0.1 µM; for inhibition at 1 µM: 1 μM compound; for inhibition at 1 µM / inhibition at 0.1 µM: read-out: Percentage inhibition of ligand binding, Adrenergic α2A
T2 construct: expressed in transfected cells; host or cells: insect Sf9 cells
T2 sequence (P08913 1-465): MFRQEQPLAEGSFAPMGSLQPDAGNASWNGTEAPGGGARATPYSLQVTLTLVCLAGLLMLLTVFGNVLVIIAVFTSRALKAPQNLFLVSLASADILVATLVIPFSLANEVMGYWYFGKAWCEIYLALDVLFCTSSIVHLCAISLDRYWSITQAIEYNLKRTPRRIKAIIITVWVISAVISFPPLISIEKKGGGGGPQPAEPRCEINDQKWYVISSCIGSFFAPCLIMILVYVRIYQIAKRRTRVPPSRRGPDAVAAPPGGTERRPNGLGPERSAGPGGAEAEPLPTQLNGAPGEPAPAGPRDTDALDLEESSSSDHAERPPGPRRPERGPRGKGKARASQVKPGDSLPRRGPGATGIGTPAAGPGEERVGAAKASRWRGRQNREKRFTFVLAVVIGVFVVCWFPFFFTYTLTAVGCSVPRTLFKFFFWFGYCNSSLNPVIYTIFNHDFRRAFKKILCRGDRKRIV
Method: To evaluate in radioligand binding assays the activity of compounds of the invention, human recombinant adrenergic α2A receptor expressed in insect Sf9 cells (Uhlen, S. et al, J. Pharmacol. Exp. Ther. 271:1558, 1994) in a modified Tris-HCl buffer (50 mM Tris-HCl, pH 7.4, 12.5 mM MgCl2, 2 mM EDTA) was used. Compounds of invention were incubated with 1 nM [^3H]MK-912 for 60 min at 25° C. MK912 was (2S-trans)-1,3,4,5′,6,6′,7,12b-octahydro-1′,3′-dimethyl-spiro[2H-benzofuro[2,3-a]quinolizine-2,4′(1′H)-pyrimidin]-2′(3′H)-one hydrochloride Non-specific binding was estimated in the presence of 10 μM WB-4101 (2-(2,6-Dimethoxyphenoxyethyl)aminomethyl-1,4-benzodioxane hydrochloride). Receptor proteins were filtered and washed, the filters were then counted to determine [^3H]MK-912 specifically bound. Compounds were screened at 1 μM or lower, using 1% DMSO as vehicle. Compounds of the invention were tested in this biochemical assay and percent inhibition of specific binding was determined. Biochemical assay results are presented as the percent inhibition of specific binding in Tables B1A-B1D.

[4] = biological target: T3, rat adrenergic α1B receptor obtained from Wistar Rat liver (Rattus norvegicus, UniProt P15823); experiment: Adrenergic α1B radioligand binding assay ([3H]Prazosin); details: 0.1 μM compound; for Percentage inhibition of ligand binding, Adrenergic α1B: 0.1 µM; for inhibition at 0.1 µM: read-out: Percentage inhibition of ligand binding, Adrenergic α1B
T3 construct: rat adrenergic α1B receptor obtained from Wistar Rat liver; from tissue; host or cells: Wistar rat liver
T3 sequence (P15823 1-515): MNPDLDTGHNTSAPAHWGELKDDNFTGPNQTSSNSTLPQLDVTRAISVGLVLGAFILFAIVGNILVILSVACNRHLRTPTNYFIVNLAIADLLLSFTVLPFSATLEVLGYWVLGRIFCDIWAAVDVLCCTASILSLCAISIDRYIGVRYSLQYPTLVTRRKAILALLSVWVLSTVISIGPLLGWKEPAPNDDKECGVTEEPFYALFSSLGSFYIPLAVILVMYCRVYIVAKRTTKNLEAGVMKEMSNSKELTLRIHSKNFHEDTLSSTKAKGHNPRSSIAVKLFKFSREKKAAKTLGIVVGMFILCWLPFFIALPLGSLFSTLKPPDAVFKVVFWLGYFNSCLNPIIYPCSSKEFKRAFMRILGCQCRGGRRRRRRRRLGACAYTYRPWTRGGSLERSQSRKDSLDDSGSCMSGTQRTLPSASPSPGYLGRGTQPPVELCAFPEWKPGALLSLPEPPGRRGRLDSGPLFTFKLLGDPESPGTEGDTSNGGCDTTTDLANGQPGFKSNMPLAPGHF
Method: To evaluate in radioligand binding assays the activity of compounds of the invention, rat adrenergic α1B receptor obtained from Wistar Rat liver (Garcia-S'ainz, J. et al, Biochem. Biophys. Res. Commun. 186:760, 1992; Michel, A. et al, Br. J. Pharmacol. 98:883, 1989) in a modified Tris-HCl buffer (50 mM Tris-HCl buffer, pH 7.4, 0.5 mM EDTA) was used. Compounds of the invention were incubated with 0.25 nM [^3H]Prazosin for 60 min at 25° C. Non-specific binding was estimated in the presence of 10 μM phentolamine. Receptor proteins were filtered and washed, the filters were then counted to determine [^3H]Prazosin specifically bound. Compounds were screened at 1 μM or lower, using 1% DMSO as vehicle. Compounds of the invention were tested in this biochemical assay and percent inhibition of specific binding was determined. Biochemical assay results are presented as the percent inhibition of specific binding in Tables B1A-B1D.

[5] = biological target: T4, human recombinant adrenergic α1D receptor (Homo sapiens, UniProt P25100); experiment: Adrenergic α1D radioligand binding assay ([3H]Prazosin); details: for inhibition at 1 µM: 1 μM compound
T4 construct: expressed in transfected cells; host or cells: HEK-293 cells
T4 sequence (P25100 1-572): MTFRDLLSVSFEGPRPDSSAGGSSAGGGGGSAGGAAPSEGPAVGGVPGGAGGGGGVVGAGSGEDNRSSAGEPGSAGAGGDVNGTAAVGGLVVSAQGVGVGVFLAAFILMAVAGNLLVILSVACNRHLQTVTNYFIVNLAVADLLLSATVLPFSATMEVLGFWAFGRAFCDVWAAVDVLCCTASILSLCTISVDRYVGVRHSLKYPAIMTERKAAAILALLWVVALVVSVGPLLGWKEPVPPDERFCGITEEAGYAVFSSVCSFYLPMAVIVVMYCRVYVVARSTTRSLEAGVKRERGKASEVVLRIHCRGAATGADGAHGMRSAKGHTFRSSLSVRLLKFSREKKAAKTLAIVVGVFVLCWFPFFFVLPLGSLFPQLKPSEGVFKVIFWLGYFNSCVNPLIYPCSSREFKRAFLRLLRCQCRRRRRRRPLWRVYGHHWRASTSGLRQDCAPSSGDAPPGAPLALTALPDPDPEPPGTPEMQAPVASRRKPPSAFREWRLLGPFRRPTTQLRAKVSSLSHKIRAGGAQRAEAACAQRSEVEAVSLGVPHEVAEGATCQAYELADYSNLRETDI
Method: To evaluate in radioligand binding assays the activity of compounds of the invention, human recombinant adrenergic α1D receptor expressed in human embryonic kidney (HEK-293) cells (Kenny, B. et al, Br. J. Pharmacol. 115(6):981, 1995) in a 50 mM Tris-HCl buffer, pH 7.4, was used. Compounds were incubated with 0.6 nM [3H]Prazosin for 60 min at 25° C. Non-specific binding was estimated in the presence of 10 μM phentolamine. Receptor proteins were filtered and washed, the filters were then counted to determine [3H]Prazosin specifically bound. Compounds were screened at 1 μM or lower, using 1% DMSO as vehicle. Biochemical assay results are presented as the percent inhibition of specific binding in Tables B1A-B1D.

[6] = read-out: Percentage inhibition of ligand binding, Adrenergic α1D

Cc1cc(C#Cc2ccncc2)c2[nH]c3c(c2c1)CN(C)CC3 [A5]
viability at 0.01 µM ([1]; Homo sapiens, SH-SY5Y, Control = 100, Vehicle = 0, read-out: Relative Cytoprotective capacity): 28.8%

Cc1ccc2c(c1)c1c(n2C)C(C)(CCc2ccccc2)CN(C)C1 (stereo not shown) [C44]
Relative Cytoprotective capacity [1]: −0.6342

Cc1ccc2[nH]c3c(c2c1)CN(C)CC3(C)CCc1ccc(C)nc1 (stereo not shown) [C46]
Relative Cytoprotective capacity [1]: −0.04527

Cc1cc2c3c(c1)c1c(n3CC(C)(c3ccc(C)nc3)OC2C)CCN(C)C1 (stereo not shown) [B161]
Percentage inhibition of ligand binding, Adrenergic α2B [2]: 7%
Percentage inhibition of ligand binding, Adrenergic α2A [3]: 13%
Percentage inhibition of ligand binding, Adrenergic α1B [4]: 2%
inhibition at 0.1 µM ([5]; 0.1 μM compound, read-out: Percentage inhibition of ligand binding, Adrenergic α1D): 1%

Cc1cc2c(-c3ccccc3)cn3c4c(c(c1)c23)CN(C)CC4 [B211]
inhibition at 0.1 µM [2]: 82%

Cc1cc2c3c(c1)c1c(n3CC(c3ccc(C)nc3)C2)CCN(C)C1 (stereo not shown) [B1]
inhibition at 1 µM [2]: 47%
inhibition at 1 µM [3]: 15%
inhibition at 1 µM [5, 6]: 28%

Cc1cc2c3c(c1)c1c(n3CC(c3ccc(F)cc3)C2)CCN(C)C1 (stereo not shown) [B3]
inhibition at 1 µM [2]: 68%
inhibition at 1 µM [3]: 89%
inhibition at 1 µM [5, 6]: 38%

Cc1cc(CC(O)c2ccncc2)c2c(c1)c1c(n2C)CCN(C)C1 (stereo not shown) [A44]
inhibition at 0.03 µM [2]: 31%
inhibition at 0.1 µM [3]: -5%
inhibition at 0.1 µM [4]: -3%

Cc1cc2c3c(c1)c1c(n3CC(C)(c3ccc(C)nc3)OC2C)CCN(C)C1 (stereo not shown) [B164]
Percentage inhibition of ligand binding, Adrenergic α2B [2]: 16%
Percentage inhibition of ligand binding, Adrenergic α2A [3]: 6%
Percentage inhibition of ligand binding, Adrenergic α1B [4]: 12%
Percentage inhibition of ligand binding, Adrenergic α1D ([5]; 0.1 μM compound, 0.1 µM): 2%

Cc1cc2c3c(c1)c1c(n3CC2c2ccc(F)cc2)CCN(C)C1 (stereo not shown) [B2]
inhibition at 1 µM [2]: 74%
inhibition at 1 µM [3]: 89%
inhibition at 1 µM [5, 6]: 24%

Cc1ccc(C2Cn3c4c(c5cccc2c53)CN(C)CC4)cn1 (stereo not shown) [B210]
inhibition at 0.1 µM [2]: 14%

Cc1cc(CC(O)c2ccncc2)c2[nH]c3c(c2c1)CN(C)CC3 (stereo not shown) [A43]
inhibition at 0.03 µM [2]: 26%
inhibition at 0.1 µM [3]: 7%
inhibition at 0.1 µM [4]: -1%
